Test results from PubChem BioAssay (NCI).
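Following 48 hours of exposure in 96-well plates, responses at five concentrations were used to interpolate endpoints linearly. GI50 is the concentration that inhibits growth by half. TGI: concentration producing complete growth inhibition.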

Assays:
Test in all cases: growth of human tumour cells (NCI), 48 h
UO-31 renal = test system: UO-31 renal
SK-MEL-5 melanoma = test system: SK-MEL-5 melanoma
SF-539 CNS = test system: SF-539 CNS
OVCAR-5 ovarian = test system: OVCAR-5 ovarian
SNB-75 CNS = test system: SNB-75 CNS
SK-MEL-2 melanoma = test system: SK-MEL-2 melanoma
RXF 393 renal = test system: RXF 393 renal
SR leukemia = test system: SR leukemia
TK-10 renal = test system: TK-10 renal
NCI-H522 lung = test system: NCI-H522 lung

Structure (SMILES)	GI50 (UO-31 renal)	TGI (UO-31 renal)	GI50 (SK-MEL-5 melanoma)	TGI (SK-MEL-5 melanoma)	GI50 (SF-539 CNS)	TGI (SF-539 CNS)	GI50 (OVCAR-5 ovarian)	TGI (OVCAR-5 ovarian)	GI50 (SNB-75 CNS)	TGI (SNB-75 CNS)	GI50 (SK-MEL-2 melanoma)	TGI (SK-MEL-2 melanoma)	GI50 (RXF 393 renal)	TGI (RXF 393 renal)	GI50 (SR leukemia)	TGI (SR leukemia)	GI50 (TK-10 renal)	TGI (TK-10 renal)	GI50 (NCI-H522 lung)	TGI (NCI-H522 lung)
Cn1cccc1-c1cc(-c2cccs2)nc(N)c1C#N	> 100 µM	> 100 µM	> 100 µM	> 100 µM	> 100 µM	> 100 µM	> 100 µM	> 100 µM	46 µM	> 100 µM	> 100 µM	> 100 µM	> 100 µM	> 100 µM	5.39 µM	68.2 µM	> 100 µM	> 100 µM	> 100 µM	> 100 µM
NCCn1c(=O)[nH]c(=O)[nH]c1=S	> 100 µM	> 100 µM	> 100 µM	> 100 µM	> 100 µM	> 100 µM	> 100 µM	> 100 µM	> 100 µM	> 100 µM	> 100 µM	> 100 µM	> 100 µM	> 100 µM	> 100 µM	> 100 µM	> 100 µM	> 100 µM	> 100 µM	> 100 µM
COc1ccc(C2=Nc3ccccc3NC(=O)C2)cc1	–	> 100 µM	–	> 100 µM	–	65.6 µM	–	> 100 µM	–	57.3 µM	–	> 100 µM	–	46.2 µM	–	> 100 µM	–	66.4 µM	–	> 100 µM
O=c1cc(-c2ccccc2)[nH]c2ccccc12	3.28 µM	> 100 µM	0.387 µM	19.1 µM	0.412 µM	9.66 µM	–	> 100 µM	0.542 µM	> 100 µM	> 100 µM	> 100 µM	0.996 µM	9.68 µM	–	> 100 µM	–	> 100 µM	0.439 µM	> 46.7 µM
Cc1ccc(N=Cc2ccc3c(c2)OCO3)cc1C	–	> 100 µM	–	> 100 µM	–	> 100 µM	–	> 100 µM	–	> 100 µM	–	> 100 µM	–	> 100 µM	–	> 100 µM	–	> 100 µM	–	> 100 µM
O=C(N/C(=C\c1ccc2c(c1)OCO2)c1nc2ccccc2[nH]1)c1ccccc1	–	99.8 µM	–	29.9 µM	–	82.7 µM	–	> 100 µM	–	> 74 µM	–	55.9 µM	–	81.5 µM	–	72.3 µM	–	92.3 µM	–	61 µM
COc1ccc2c(c1)cn1c3ccc(O)cc3nc(N)c21	0.148 µM	10.3 µM	0.0762 µM	3.95 µM	0.237 µM	2.72 µM	1.57 µM	18.3 µM	0.112 µM	2.81 µM	0.27 µM	5.14 µM	0.0852 µM	2.66 µM	0.0743 µM	2.76 µM	1.13 µM	5.6 µM	0.111 µM	2.22 µM
Cc1cc(N(CCCl)CCCl)ccc1C=Nc1ccc(-c2csc(Cc3ccccc3)n2)cc1	2.61 µM	26.8 µM	7.68 µM	21.2 µM	5.41 µM	29.4 µM	8.91 µM	> 67.1 µM	3.03 µM	33.5 µM	18.8 µM	40.3 µM	14.6 µM	71.3 µM	1.07 µM	73.2 µM	19.9 µM	62.5 µM	11.7 µM	27 µM
COc1ccc(/C=C2\CCCC3=C2N=C2SC(C)=NN2C3c2ccc(OC)c(OC)c2)cc1OC (centres undefined)	5.99 µM	43.9 µM	6.27 µM	> 100 µM	8.15 µM	> 100 µM	36 µM	> 100 µM	13.7 µM	64.2 µM	22.2 µM	97.1 µM	3.88 µM	18.2 µM	3.66 µM	> 100 µM	5.99 µM	51.2 µM	10.8 µM	57.8 µM
CCCC(=O)OC1C(C(O)CO)OC2OC(C)(C)OC21 (centres undefined)	–	> 100 µM	–	> 100 µM	–	> 100 µM	–	> 100 µM	–	> 100 µM	–	> 100 µM	–	> 100 µM	–	> 100 µM	–	> 100 µM	–	> 100 µM
COc1ccc2sc3c(NCCCN(C)C)nc4ccccc4c3c(=O)c2c1	1.47 µM	2.84 µM	1.73 µM	3.12 µM	1.63 µM	3.06 µM	1.76 µM	3.23 µM	1.42 µM	2.8 µM	1.76 µM	3.32 µM	1.22 µM	2.53 µM	1.68 µM	5.99 µM	1.81 µM	3.31 µM	1.78 µM	3.46 µM
CCCC(C)c1cc(Cc2cc(Cl)cc(Cl)c2O)c(O)c(Cc2cc(Cl)cc(Cl)c2O)c1 (centres undefined)	2.52 µM	10.2 µM	0.428 µM	2.21 µM	1.09 µM	7.28 µM	4.05 µM	15 µM	1.86 µM	7.7 µM	1.76 µM	4.77 µM	1.34 µM	8.27 µM	0.249 µM	11 µM	2.3 µM	11.8 µM	0.4 µM	6.6 µM
C=CCC[CH2][Sn]([c]1ccccc1)([c]1ccccc1)[c]1ccccc1	1.89 µM	3.36 µM	1.65 µM	3.02 µM	1.94 µM	3.52 µM	1.12 µM	2.35 µM	2.49 µM	6.88 µM	1.76 µM	3.2 µM	1.34 µM	2.66 µM	0.572 µM	5.28 µM	1.6 µM	3.09 µM	1.19 µM	2.49 µM
CC1(C)CC(=O)c2c(C(F)(F)F)nn(-c3ccc(C(N)=O)c(NC4CCC(OC(=O)CN)CC4)c3)c2C1 (centres undefined)	0.418 µM	> 27.1 µM	0.0742 µM	18.3 µM	0.364 µM	20.8 µM	3.7 µM	> 100 µM	0.634 µM	> 100 µM	0.0683 µM	> 100 µM	0.157 µM	28.8 µM	0.0301 µM	17.6 µM	0.0592 µM	> 100 µM	0.0387 µM	20.1 µM
CC#C[C@]1(O)CC[C@H]2[C@@H]3CCC4=CC(=O)CCC4=C3[C@@H](c3ccc4c(c3)OCO4)C[C@@]21C	49.6 µM	218 µM	66.1 µM	199 µM	89.2 µM	274 µM	236 µM	> 1000 µM	42.8 µM	521 µM	111 µM	291 µM	43.8 µM	197 µM	77.2 µM	479 µM	125 µM	461 µM	110 µM	460 µM
COc1ccc(OC)c(/C=C2\SC(=S)NC2=O)c1	33.6 µM	> 100 µM	21.2 µM	49.2 µM	17.4 µM	49.6 µM	26.7 µM	> 100 µM	29.3 µM	> 100 µM	80.6 µM	> 100 µM	18.4 µM	64.8 µM	37.6 µM	> 100 µM	28.8 µM	> 100 µM	31.4 µM	> 100 µM
N#C/C(=C\c1ccc(O)c(O)c1)C(N)=S	–	> 100 µM	–	> 100 µM	–	> 100 µM	–	> 100 µM	–	> 100 µM	–	> 100 µM	–	> 89.7 µM	–	> 100 µM	–	> 100 µM	–	75.9 µM
CC1OC(O[C@@H]2OC=C(C=O)[C@@]3(O)CC[C@H](C)[C@@H]23)C(O)C(O)C1O (some centres undefined)	–	> 100 µM	–	> 100 µM	–	> 100 µM	–	> 100 µM	–	> 100 µM	–	> 100 µM	–	> 100 µM	–	> 100 µM	–	> 100 µM	–	> 100 µM
CC1(C)C(=NNC(=O)C[N+](C)(C)C)C(C)(C)C1=NNC(=O)C[N+](C)(C)C	–	> 100 µM	–	> 100 µM	–	> 100 µM	–	> 100 µM	–	> 100 µM	–	> 100 µM	–	> 100 µM	–	> 100 µM	–	> 100 µM	–	> 100 µM
O=[N+]([O-])C1C2C=CC(C2)[C@H]1c1ccco1 (some centres undefined)	–	> 100 µM	–	> 100 µM	–	> 100 µM	–	> 100 µM	–	> 100 µM	–	> 100 µM	–	> 100 µM	–	> 100 µM	–	> 100 µM	–	> 100 µM
CCc1ccccc1NC(=O)C(=O)CC(=O)c1sc(Nc2ccccc2)nc1C	–	> 100 µM	–	> 100 µM	–	> 100 µM	–	> 100 µM	–	> 100 µM	–	> 100 µM	–	> 100 µM	–	> 100 µM	–	> 100 µM	–	> 100 µM
CSc1ccc(C2OC(=O)c3ccccc32)c2ccccc12 (centres undefined)	–	> 100 µM	–	> 100 µM	–	> 100 µM	–	> 100 µM	–	61.2 µM	–	> 100 µM	–	> 100 µM	–	> 100 µM	–	–	–	> 100 µM
O=C1c2cccnc2C(=O)c2nc3cc(N4CCN(C5CC5)CC4)ccc3nc21	0.259 µM	1.92 µM	0.252 µM	0.686 µM	0.442 µM	1.66 µM	1.34 µM	3.07 µM	0.147 µM	1.37 µM	1.61 µM	4.22 µM	0.607 µM	2.61 µM	0.322 µM	> 20.1 µM	2.19 µM	7.81 µM	0.238 µM	1.36 µM
COc1ccc(-c2c3c(N)nc(-c4ccncc4)nc3nc3c2c(C)nn3-c2ccccc2)cc1	50.7 µM	> 100 µM	6.79 µM	> 100 µM	1.93 µM	4.97 µM	4.03 µM	> 100 µM	3.62 µM	28.4 µM	31 µM	> 100 µM	2.72 µM	20.6 µM	1.53 µM	> 100 µM	3.71 µM	14.6 µM	4.94 µM	53.5 µM
COc1cc2c(c(OC)c1)C1c3ccccc3NC(=O)N1CC2 (centres undefined)	2.81 µM	85.4 µM	4.01 µM	15.3 µM	1.7 µM	7.26 µM	4.96 µM	> 100 µM	2.69 µM	> 100 µM	2.85 µM	91.4 µM	2.38 µM	5.6 µM	2.77 µM	> 100 µM	8.98 µM	> 100 µM	2.97 µM	11.8 µM
CC(C)[C@H]1CO[C@]2(C)[C@@H]3CN(Cc4ccccc4)C[C@@H]3C(=O)N12	–	> 100 µM	–	> 100 µM	–	> 100 µM	–	–	–	> 100 µM	–	> 100 µM	–	> 100 µM	–	> 100 µM	–	> 100 µM	–	> 100 µM
CC(CCC(=O)O)[C@H]1CCC2[C@@H]3CC[C@@H]4CC(O)CC[C@]4(C)C3CC[C@@]21C (some centres undefined)	22.1 µM	67.3 µM	–	–	26 µM	72.4 µM	> 100 µM	> 100 µM	66.1 µM	> 100 µM	28.5 µM	87.1 µM	46.9 µM	> 100 µM	23.4 µM	85.4 µM	42.2 µM	> 100 µM	68.1 µM	> 100 µM
COc1ccc(-c2csc(N(C(=O)N3CCN(c4cc5c(cc4F)c(=O)c(C(=O)O)cn5C4CC4)CC3)c3ccccc3)n2)cc1	–	–	2.86 µM	8.39 µM	2.93 µM	48.7 µM	3.29 µM	> 100 µM	0.812 µM	> 25.9 µM	2.2 µM	5.22 µM	0.789 µM	14.8 µM	2.78 µM	> 100 µM	1.7 µM	39.9 µM	2.16 µM	6.8 µM
Cc1ccccc1[P+](Cc1ccccc1)(c1ccccc1)c1ccccc1	14.2 µM	69.2 µM	0.863 µM	2.29 µM	2.34 µM	24.7 µM	2.46 µM	> 100 µM	2.14 µM	20.2 µM	2.67 µM	6.65 µM	4.35 µM	51.8 µM	1.6 µM	15.7 µM	–	–	2.09 µM	10.5 µM
